The results in this text go back to ChEMBL document CHEMBL1201862, “PubChem BioAssay data set” (2004).

Molecules are shown by their SMILES.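 Values below derive from 48-hour exposures of cells grown in 96-well plates, with endpoints linearly interpolated between the two concentrations bracketing the appropriate inhibition level. At the GI50, growth is halved.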 The source made the active and inactive calls. Cut-off read from the data, not from the text of the source: active = GI50 up to about 1.1 µM and inactive = higher.

Test systems include UACC-62; HCT-116; HT-29; SNB-75; 786-0; HOP-62; UO-31; CAKI-1; OVCAR-8; RPMI-8226; ACHN; NCI-H460; HL-60; CCRF-CEM; TK-10; EKVX.
Holding throughout (test): DTP human tumour cell line panel, 48 h

Turning to `Cn1nc2ccc3nccc(NCCNCCO)c3c2n1`, the GI50 was 33.3 µM (inactive) with UACC-62; 18.2 µM (inactive) with HCT-116; 20.5 µM (inactive) with HT-29; 45.2 µM (inactive) with SNB-75; 38.5 µM (inactive) in the experiment on 786-0; 47.4 µM (inactive) in the experiment on HOP-62. Moreover, the GI50 was 25.8 µM (inactive) in the experiment on UO-31; 63 µM (inactive) in the experiment on CAKI-1; 36.4 µM (inactive) in the experiment on OVCAR-8; 26.9 µM (inactive) in the experiment with RPMI-8226; 34.3 µM (inactive) in the experiment with ACHN; 18.1 µM (inactive) with NCI-H460. Also, the GI50 with HL-60 was > 100 µM (inactive); in the experiment on CCRF-CEM, > 100 µM (inactive); with TK-10, 45.8 µM (inactive).

Consider `CCOc1ccccc1Nc1nc(C)c(C(=O)CC(=O)C(=O)Nc2ccccc2)s1`, for which the GI50 was 37.9 µM (inactive) in the experiment on UACC-62; 51.8 µM (inactive) with HCT-116; 37.1 µM (inactive) with HT-29; 25.2 µM (inactive) in the experiment with SNB-75; 42.4 µM (inactive) in the experiment with EKVX; 99.8 µM (inactive) with 786-0. Also, the GI50 with HOP-62 is > 100 µM (inactive); with UO-31 it was 32.2 µM (inactive); in the experiment on CAKI-1, 47.8 µM (inactive); in the experiment with OVCAR-8, 78.9 µM (inactive); with ACHN, 37.8 µM (inactive); in the experiment with NCI-H460, 49.7 µM (inactive). Besides, the GI50 in the experiment with HL-60 was 20.3 µM (inactive); in the experiment on CCRF-CEM, 39.1 µM (inactive); in the experiment with TK-10 it was 73.8 µM (inactive).

Take `CC1(OCc2ccccc2)C(=O)N2C1N(C(=O)OCc1ccccc1)CC2(C)C` (stereo not given): the GI50 in the experiment with UACC-62 is 38.5 µM (inactive); in the experiment with HCT-116 it was 69.8 µM (inactive); in the experiment with HT-29, 67.8 µM (inactive); in the experiment with SNB-75, 32.4 µM (inactive); with EKVX, 67.8 µM (inactive); in the experiment with 786-0, > 100 µM (inactive). In addition, the GI50 in the experiment on HOP-62 was 82.4 µM (inactive); in the experiment on UO-31, 31.4 µM (inactive); in the experiment with OVCAR-8 it was 34.8 µM (inactive); with RPMI-8226, 27.5 µM (inactive); in the experiment with ACHN, 61.1 µM (inactive); with NCI-H460 it was 42.6 µM (inactive). Moreover, the GI50 in the experiment with HL-60 was 29.4 µM (inactive); in the experiment with CCRF-CEM it was 35.1 µM (inactive); in the experiment on TK-10 it was > 100 µM (inactive).

`C=CC(Br)(CBr)CCC(Br)C(C)(C)Br` (stereo not given): the GI50 in the experiment on UACC-62 is 12 µM (inactive); in the experiment on HCT-116 it was 14.5 µM (inactive); in the experiment on HT-29, 13.2 µM (inactive); in the experiment on SNB-75 it was 10.3 µM (inactive); in the experiment with 786-0, 12.9 µM (inactive); in the experiment on HOP-62, 21 µM (inactive). Besides, the GI50 in the experiment on UO-31 is 15.2 µM (inactive); in the experiment with CAKI-1 it was 22.8 µM (inactive); in the experiment with OVCAR-8, 15.7 µM (inactive); in the experiment with RPMI-8226, 2.79 µM (inactive); in the experiment with ACHN it was 12.7 µM (inactive); with NCI-H460, 10.4 µM (inactive). In the experiment with TK-10, the GI50 was 16.4 µM (inactive).

For the molecule `CCOC(=O)C(C)(C)Oc1ccc2c(-c3ccc(Cl)cc3)c(-c3ccc(Cl)cc3)c(=O)oc2c1`, the GI50 is > 100 µM (inactive) with UACC-62; 89.5 µM (inactive) in the experiment on HCT-116; > 100 µM (inactive) in the experiment on HT-29; > 100 µM (inactive) in the experiment on SNB-75; > 100 µM (inactive) with EKVX; > 100 µM (inactive) in the experiment with 786-0. In addition, the GI50 in the experiment on HOP-62 is > 100 µM (inactive); with UO-31 it was > 100 µM (inactive); in the experiment with OVCAR-8, > 100 µM (inactive); in the experiment with RPMI-8226, 80 µM (inactive); with ACHN, > 100 µM (inactive); in the experiment on NCI-H460 it was > 100 µM (inactive). Besides, the GI50 in the experiment on HL-60 is 68.7 µM (inactive); in the experiment on CCRF-CEM, > 100 µM (inactive); with TK-10, > 100 µM (inactive).

For the molecule `O=[N+]([O-])c1ccc(-c2ccc(C3=Nn4c(CNc5ccccc5Cl)nnc4SC3)o2)cc1`, the GI50 in the experiment on UACC-62, with HCT-116, with HT-29, in the experiment with SNB-75, in the experiment on 786-0 and in the experiment on HOP-62 was > 100 µM (inactive) in each case. Further, the GI50 with UO-31 was > 100 µM (inactive); in the experiment on CAKI-1, > 100 µM (inactive); in the experiment with OVCAR-8 it was > 100 µM (inactive); in the experiment with RPMI-8226, > 100 µM (inactive); in the experiment on ACHN, 32.6 µM (inactive); in the experiment with NCI-H460, > 100 µM (inactive). The GI50 in the experiment with HL-60 and in the experiment on TK-10 was > 100 µM (inactive) in each case.

On to `Cn1c(=O)ccc2cc(C(=O)c3ccccc3)ccc21`, for which the GI50 with UACC-62 is 14.6 µM (inactive); with HCT-116 it was 73.5 µM (inactive); in the experiment on HT-29, 46 µM (inactive); with SNB-75, 12.3 µM (inactive); with EKVX it was 34.2 µM (inactive); with 786-0, 83.2 µM (inactive). For the same molecule, the GI50 is > 100 µM (inactive) in the experiment on HOP-62; 39.4 µM (inactive) with CAKI-1; 58.6 µM (inactive) in the experiment with OVCAR-8; 47.5 µM (inactive) with RPMI-8226; 36.8 µM (inactive) with ACHN; > 100 µM (inactive) in the experiment with NCI-H460. Moreover, the GI50 in the experiment with HL-60 is 23.6 µM (inactive); in the experiment on CCRF-CEM it was 69.7 µM (inactive); in the experiment with TK-10, 35.2 µM (inactive).

As to `N#Cc1cc([N+](=O)[O-])ccc1NC(=O)C(=O)Nn1c(S)nc2ccccc2c1=O`, the GI50 in the experiment on HCT-116, in the experiment with HT-29, in the experiment with SNB-75, in the experiment with EKVX, in the experiment with 786-0 and in the experiment with HOP-62 was > 100 µM (inactive) in each case. Besides, the GI50 with UO-31, with CAKI-1, with OVCAR-8, with RPMI-8226, in the experiment on NCI-H460 and in the experiment on HL-60 was > 100 µM (inactive) in each case. Also, the GI50 with CCRF-CEM and with TK-10 was > 100 µM (inactive) in each case.

Take `CCOC(=O)C(C)(C)Oc1ccc2c(-c3ccccc3)cc(=O)oc2c1`: the GI50 was 18.3 µM (inactive) in the experiment with UACC-62; 35.6 µM (inactive) with HCT-116; > 10 µM (inactive) in the experiment with HT-29; 12.9 µM (inactive) with SNB-75; 43 µM (inactive) in the experiment on EKVX; 33.7 µM (inactive) in the experiment on 786-0. Further, the GI50 in the experiment on HOP-62 is 23.1 µM (inactive); in the experiment with UO-31, 23 µM (inactive); in the experiment on OVCAR-8, 37.1 µM (inactive); with RPMI-8226, 18.1 µM (inactive); in the experiment with ACHN it was 40.2 µM (inactive); with NCI-H460, > 100 µM (inactive). Moreover, the GI50 in the experiment with HL-60 was 20.1 µM (inactive); with CCRF-CEM, 21.7 µM (inactive); in the experiment on TK-10, 56.8 µM (inactive).

As for `COC(=O)C1Cc2c([nH]c3ccccc23)[C@H](CC(C)C)N1` (stereo not given in full), the GI50 with UACC-62 is > 100 µM (inactive); with HCT-116 it was > 100 µM (inactive); with HT-29 it was > 100 µM (inactive); with SNB-75, 97.5 µM (inactive); in the experiment on EKVX, > 100 µM (inactive); with 786-0, > 100 µM (inactive). Besides, the GI50 with HOP-62, in the experiment on UO-31, in the experiment with OVCAR-8, in the experiment with RPMI-8226, in the experiment with ACHN and with HL-60 was > 100 µM (inactive) throughout. The GI50 with CCRF-CEM and in the experiment on TK-10 was > 100 µM (inactive) each time.

With `c1ccc2c(c1)N=C(c1cccc3ccccc13)CC(c1ccc3c(c1)OCO3)S2` (stereo not given), the GI50 with UACC-62, in the experiment on HCT-116, in the experiment with HT-29, in the experiment with SNB-75, in the experiment with EKVX and in the experiment on 786-0 was > 100 µM (inactive) each time. Also, the GI50 in the experiment with HOP-62, with UO-31, in the experiment with CAKI-1, in the experiment with OVCAR-8, with ACHN and with NCI-H460 was > 100 µM (inactive) throughout. Besides, the GI50 in the experiment on HL-60, with CCRF-CEM and in the experiment on TK-10 was > 100 µM (inactive) each time.

Consider `CN(C)CCNC(=O)c1cccc2c1nc(-c1ccc(F)cc1)c1ccccc12`, for which the GI50 was 3.09 µM (inactive) with UACC-62; 2.46 µM (inactive) with HCT-116; 3.85 µM (inactive) with HT-29; 10.7 µM (inactive) with SNB-75; 9.38 µM (inactive) in the experiment on EKVX; 4.65 µM (inactive) in the experiment with 786-0. Further, the GI50 in the experiment with HOP-62 was 1.22 µM (inactive); in the experiment with UO-31, 1.64 µM (inactive); with CAKI-1 it was 3.27 µM (inactive); with OVCAR-8, 4.33 µM (inactive); with ACHN, 2.64 µM (inactive); in the experiment on NCI-H460, 0.417 µM (active). Moreover, the GI50 in the experiment with HL-60 is 1.22 µM (inactive); with CCRF-CEM, 1.97 µM (inactive); in the experiment with TK-10 it was 4.03 µM (inactive).

For `Cc1cccc(C(C)C)c1NC(=O)CCl`, the GI50 in the experiment on UACC-62 is 24.4 µM (inactive); in the experiment with HCT-116, 50.2 µM (inactive); in the experiment with HT-29, 49.1 µM (inactive); with SNB-75, 33.7 µM (inactive); in the experiment on EKVX, 20.6 µM (inactive); in the experiment with 786-0 it was 53.8 µM (inactive). Also, the GI50 in the experiment on HOP-62 was 41.9 µM (inactive); in the experiment on UO-31, > 100 µM (inactive); in the experiment with CAKI-1 it was 27.9 µM (inactive); in the experiment with RPMI-8226 it was 86.7 µM (inactive); in the experiment with ACHN, 73.3 µM (inactive); in the experiment on NCI-H460 it was 64.6 µM (inactive). Moreover, the values for the GI50 with HL-60, with CCRF-CEM and with TK-10 were 39.9 µM (inactive), 30.5 µM (inactive) and > 10 µM (inactive), respectively.
